This is an account of results in patent publication US5650411A, “Substituted azolone derivatives” (Janssen Pharmaceutica N.V., priority 1993, dated 1997).

Values after ≈ are worked out from the molar mass of the structure shown.

In this assay the test system is Helicobacter pylori. Put plainly: Minimal inhibitory concentration (MIC) against Helicobacter pylori, urease read-out, 5 clinical strains. The assay is classed as cell-based. The following applies: 5 H. pylori clinical strains, 10% blood agar, 48 h at 37° C., microaerophilic, read-out: MIC. As to the method: The anti-Helicobacter activity of the subject compounds was assessed by the following in-vitro test procedure.
The activity of test compounds against Helicobacter pylori was determined against a standard set of 5 H. priori strains obtained from clinical material. Minimal inhibitory concentrations (MICs) were determined by measuring the activity of H. pylori urease after treatment of growing cultures of the bacteria with the antimicrobial agents.
The test compounds were dissolved in DMSO at a concentration of 10^-3 M. A dilution to 10^-4 M in DMSO was also prepared. 10 μl volumes of these solutions were pipetted in the wells of Repli-Dishes (®Sterilin). Wells containing DMSO alone were included as controls in each Repli-Dish. Ampicillin ((+)-6-[(2-amino-2-phenylacetyl)amino]-3,3-dimethyl-7-oxo-4-thia-1-azabicyclo[3.2.0]heptane-2-carboxylic acid trihydrate) and metronidazole (2-methyl-5-nitro-1H-imidazol-1-ethanol) were included as reference compounds in each batch of tests. (These compounds were tested at final concentrations of 10^-5, 10^-6, 10^-7 and 10^-8 M). Test plates were stored at 4° C. until used. The five isolates of H. pylori were maintained by subculture on 10% blood agar every 2 or 3 days. The bacteria were grown at 37° C. under an atmosphere containing 5% oxygen, 10% CO2 and 85% nitrogen. Suspensions of Helicobacter pylori for inoculum were prepared in Brain-heart infusion broth and adjusted to an absorbance of 1.5±0.3 at […].
Freshly prepared 10% blood agar held at 45° C. was added in 1 ml volumes to the wells of the test plates, thus diluting the test compounds to 10^-5 and 10^-6 M. The medium was allowed to cool, then 10 μl volumes of bacterial suspension were pipetted on the agar surface. The plates were incubated for 48 h at 37° C. under the microaerophilic atmosphere described above. […] After the 48 h of incubation, 1 ml volumes of urease broth were gently added to each Repli-Dish well and the plates were incubated at 37° C. for 2 h. 100 μl samples of fluid from each well were then pipetted into the wells of 96-place microdilution plates. A purple colour was interpreted as growth, yellow-orange as no growth of H. pylori. By this means a clear end-point was obtained, from which the inhibitory effects could be determined.
Table 1 summarizes the MIC values determined by the above procedure for a subset of the subject compounds.
Consider `Cc1nn(CC(O)c2ccc(OC(F)(F)F)cc2)c(=O)n1-c1ccc(N2CCN(c3ccc(O)cc3)CC2)cc1` (racemic) [compound 36, (±)-2,4-dihydro-4-[4-[4-(4-hydroxyphenyl)-1-piperazinyl]phenyl]-2-[2-hydroxy-2-[4-(trifluoromethoxy)-phenyl]ethyl]-5-methyl-3H-1,2,4-triazol-3-one], for which the minimum inhibitory concentration (MIC) came out at 10 µM (≈ 5.56 µg/mL).

As to `CCC(C(=O)c1ccc(Cl)cc1)n1ncn(-c2ccc(N3CCC(c4ccc(OC)c(OC)c4)CC3)nc2)c1=O` (racemic) [compound 45, (±)-2-[1-(4-chlorobenzoyl)propyl]-4-[6-[4-(3,4-dimethoxyphenyl)-1-piperidinyl]-3-pyridinyl]-2,4-dihydxo-3H-1,2,4-triazol-3-one], the MIC turned out to be 0.01 µM (≈ 0.00562 µg/mL).

On to `CCC(C(=O)c1ccc(Cl)cc1)n1ncn(-c2ccc(N3CCN(c4ccc(OC)cc4)CC3)cc2)c1=O` (single isomer, unassigned; (+)) [compound 31, (+)-(A)-2-[1-(4-chlorobenzoyl)propyl]-2,4-dihydro-4-[4-[4-(4-methoxyphenyl)-1-piperazinyl]phenyl]-3H-1,2,4-triazol-3-one], for which the MIC came to 1 µM (≈ 0.532 µg/mL).

In the case of `Cc1cn(C(C)C(=O)c2ccc(Cl)cc2)c(=O)n1-c1ccc(N2CCN(c3ccc(O)cc3)CC2)cc1` (centres unmarked) [compound 30, 1-[1-(4-chlorobenzoyl)ethyl]-1,3-dihydro-3-[4-[4-(4-hydroxyphenyl)-1-piperazinyl]phenyl]-4-methyl-2H-imidazol-2-one], the minimum inhibitory concentration (MIC) is 1 µM (≈ 0.517 µg/mL).

For the molecule `CC[C@H]([C@H](O)c1ccc(Cl)cc1)n1ncn(-c2ccc(N3CCN(c4ccc(OC)c(OC)c4)CC3)nc2)c1=O` (relative stereo) [compound 49, (±)-(R*,R*)-2-[1-[(4-chlorophenyl)hydroxymethyl]propyl]-4-[6-[4-(3,4-dimethoxy-phenyl)-1-piperazinyl]-3-pyridinyl]-2,4-dihydro-3H-1,2,4-triazol-3-one], the MIC is 0.01 µM (≈ 0.00565 µg/mL).

Take `CCC(C(O)c1ccc(Cl)cc1)n1ncn(-c2ccc(N3CCN(c4ccc(O)cc4)CC3)nc2)c1=O` (racemic) [compound 14, (±)-2-[1-[(4-chlorophenyl)hydroxymethyl]propyl]-2,4-dihydro-4-[6-[4-(4-hydroxyphenyl)-1-piperazinyl]-3-pyridinyl]-3H-1,2,4-triazol-3-one]: the MIC is 0.1 µM (≈ 0.0521 µg/mL).

In the case of `CC[C@H]([C@H](O)c1ccc(Cl)cc1)n1ccn(-c2ccc(N3CCN(c4ccc(OC)cc4)CC3)nc2)c1=O` (relative stereo) [compound 38, (±)-(R*,R*)-1-[1-[(4-chlorophenyl)hydroxymethyl]propyl]-1,3-dihydro-3-[6-[4-(4-methoxyphenyl)-1-piperazinyl]-3-pyridinyl]-2H-imidazol-2-one], the MIC was 0.1 µM (≈ 0.0534 µg/mL).

For `CCC(C(=O)c1ccc(Cl)cc1)n1ncn(-c2ccc(N3CCN(c4ccccc4O)CC3)nc2)c1=O` (racemic) [compound 29, (±)-2-[1-(4-chlorobenzoyl)propyl]-2,4-dihydro-4-[6-[4-(2-hydroxyphenyl)-1-piperazinyl]-3-pyridinyl]-3H-1,2,4-triazol-3-one], the MIC stood at 0.1 µM (≈ 0.0519 µg/mL).

Regarding `CC(C)(C(O)c1ccc(Br)cc1)n1ncn(-c2ccc(N3CCN(c4ccc(O)cc4)CC3)cc2)c1=O` (racemic) [compound 21, (±)-2-[2-(4-bromophenyl)-2-hydroxy-1,1-dimethylethyl]-2,4-dihydro-4-[4-[4-(4-hydroxyphenyl)-1-piperazinyl]phenyl]-3H-1,2,4-triazol-3-one], the MIC was determined as 0.1 µM (≈ 0.0564 µg/mL).

In the case of `CCC(C(=O)c1ccc(Cl)cc1)n1ncn(-c2ccc(N3CCN(c4ccc(OC)cc4)CC3)nc2)c1=O` (racemic) [compound 1, (±)-2-[1-(4-chlorobenzoyl)propyl]-2,4-dihydro-4-[6-[4-(4-methoxyphenyl)-1-piperazinyl]-3-pyridinyl]-3H-1,2,4-triazol-3-one], the MIC was 0.1 µM (≈ 0.0533 µg/mL).

Take `CCC(C)(C(O)c1ccc(Br)cc1)n1nc(C)n(-c2ccc(N3CCN(c4ccc(O)cc4)CC3)cc2)c1=O` (racemic) [compound 13, (±)-2-[1-[(4-bromophenyl)hydroxymethyl]-1-methylpropyl]-2,4-dihydro-4-[4-[4-(4-hydroxyphenyl)-1-piperazinyl]phenyl]-5-methyl-3H-1,2,4-triazol-3-one]: the MIC was 0.1 µM (≈ 0.0593 µg/mL).

For the molecule `Cc1cc(N2CCN(c3ccc(-n4c(C)nn([C@H](C)[C@H](O)c5ccc(Cl)c(Cl)c5)c4=O)cc3)CC2)cc(C)c1O` (relative stereo) [compound 10, (±)-(R*,R*)-2-[2-(3,4-dichlorophenyl)-2-hydroxy-1-methylethyl]-2,4-dihydro-4-[4-[4-(4-hydroxy-3,5-dimethylphenyl)-1-piperazinyl]phenyl]-5-methyl-3H-1,2,4-triazol-3-one hemihydrate], the MIC is 1 µM.

For the molecule `CCC(C(=O)c1ccc(Cl)cc1)n1ncn(-c2ccc(N3CCN(c4ccc(O)cn4)CC3)cc2)c1=O` (racemic) [compound 27, (±)-2-[1-(4-chlorobenzoyl)propyl]-2,4-dihydro-4-[4-[4-(5-hydroxy-2-pyridinyl)-1-piperazinyl]phenyl]-3H-1,2,4-triazol-3-one], the MIC worked out at 0.1 µM (≈ 0.0519 µg/mL).

Consider `CCC(C(=O)c1ccc(Cl)cc1)n1ncn(-c2ccc(N3CCN(c4cccc(OC)c4)CC3)nc2)c1=O` (racemic) [compound 4, (±)-2-[1-(4-chlorobenzoyl)propyl]-4-[6-[4-(3-methoxyphenyl)-1-piperazinyl]-3-pyridinyl]-2,4-dihydro-3H-1,2,4-triazol-3-one], for which the MIC was determined as 0.01 µM (≈ 0.00533 µg/mL).

Broadly, the MIC is the lowest concentration found to suppress growth.
